Test results: US20250340560A1, “SUBSTITUTED PYRAZOLO[1,5-a]PYRIMIDINES AS BRUTON'S TYROSINE KINASE MODULATORS” (BEIGENE SWITZERLAND GMBH, priority 2013, published 2025)
Where a name gives a salt, the structure may show the parent alone.

Each compound was assayed against Recombinant Btk (Homo sapiens (Human), UniProt Q06187) (assay: BTK kinase assay (TR-FRET)). Details: read-out: IC50 (nM) Btk; 1 hour pre-incubation, ATP at Km.
Recombinant Btk, sequence (Q06187 whole entry): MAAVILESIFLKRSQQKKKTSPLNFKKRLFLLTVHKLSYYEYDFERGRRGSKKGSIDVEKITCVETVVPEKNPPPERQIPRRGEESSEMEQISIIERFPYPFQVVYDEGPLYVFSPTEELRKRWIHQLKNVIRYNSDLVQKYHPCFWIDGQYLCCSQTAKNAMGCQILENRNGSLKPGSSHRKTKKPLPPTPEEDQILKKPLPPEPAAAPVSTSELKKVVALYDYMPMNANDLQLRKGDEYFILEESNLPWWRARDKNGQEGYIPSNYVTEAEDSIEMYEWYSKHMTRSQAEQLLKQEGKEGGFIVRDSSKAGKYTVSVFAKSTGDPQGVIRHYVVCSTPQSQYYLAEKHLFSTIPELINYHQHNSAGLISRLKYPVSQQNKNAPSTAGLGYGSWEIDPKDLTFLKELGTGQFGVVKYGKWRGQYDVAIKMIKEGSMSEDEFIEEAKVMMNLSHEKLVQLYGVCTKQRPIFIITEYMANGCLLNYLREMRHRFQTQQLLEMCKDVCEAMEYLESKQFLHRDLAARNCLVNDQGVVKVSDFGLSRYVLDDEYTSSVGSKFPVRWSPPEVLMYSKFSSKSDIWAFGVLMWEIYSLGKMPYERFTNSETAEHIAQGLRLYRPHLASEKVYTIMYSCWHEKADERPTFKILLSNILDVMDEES

Compared with `C=CC(=O)N1CCC(c2cc(=O)[nH]c3c(C(N)=O)c(-c4ccc(Oc5ccccc5)cc4)nn23)CC1` [Compound 81], `C=CC(=O)N1CCC(C2(C)CCNc3c(C(N)=O)c(-c4ccc(Oc5ccccc5)cc4)nn32)CC1` (centres unmarked) [Compound 138, 7-(1-acryloylpiperidin-4-yl)-7-methyl-2-(4-phenoxyphenyl)-4,5,6,7-tetrahydropyrazolo[1,5-a]pyrimidine-3-carboxamide] is 5900-fold lower in IC50: 5900 nM for the first, 1 nM for the second.

`C=CC(=O)Nc1ccccc1C1CCNc2c(C(N)=O)c(-c3ccc(F)c(Cl)c3)nn21` (centres unmarked) [Compound 196, 7-(2-Acrylamidophenyl)-2-(3-chloro-4-fluorophenyl)-4,5,6,7-tetrahydropyrazolo[1,5-a]pyrimidine-3-carboxamide] and `C=CC(=O)Nc1ccccc1C1CCNc2c(C(N)=O)c(-c3ccc(F)c(Br)c3)nn21` (centres unmarked) [Compound 152, 7-(2-Acrylamidophenyl)-2-(3-bromo-4-fluorophenyl)-4,5,6,7-tetrahydropyrazolo[1,5-a]pyrimidine-3-carboxamide] are within 1.5-fold of each other in IC50: 1.1 nM for the first, 1.2 nM for the second.

`NC(=O)c1c(-c2ccc(Oc3ccccc3)cc2)nn2c1NCCC2c1cccc(N)c1` (centres unmarked) [Compound 2, 7-(3-Aminophenyl)-2-(4-phenoxyphenyl)-4,5,6,7-tetrahydropyrazolo [1,5-a]pyrimidine-3-carboxamide] and `NC(=O)c1c(-c2ccc(Oc3ccccc3)cc2)nn2c1NCCC2c1cc(N)ccc1Cl` (centres unmarked) [Compound 95, 7-(5-amino-2-chlorophenyl)-2-(4-phenoxyphenyl)-4,5,6,7-tetrahydropyrazolo[1,5-a]pyrimidine-3-carboxamide] are within 1.5-fold of each other in IC50: 360 nM for the first, 470 nM for the second.

`C=CC(=O)N1CC(C2CCNc3c(C(N)=O)c(-c4ccc(Oc5ccccc5C#N)cc4)nn32)C1` (centres unmarked) [Compound 135, 7-(1-acryloylazetidin-3-yl)-2-(4-(2-cyanophenoxy)phenyl)-4,5,6,7-tetrahydropyrazolo[1,5-a]pyrimidine-3-carboxamide] and `C=CC(=O)N1CC(C2CCNc3c(C(N)=O)c(-c4ccc(Oc5ccccc5)c(Cl)c4)nn32)C1` (centres unmarked) [Compound 139, 7-(1-acryloylazetidin-3-yl)-2-(3-chloro-4-phenoxyphenyl)-4,5,6,7-tetrahydropyrazolo[1,5-a]pyrimidine-3-carboxamide] are within 1.5-fold of each other in IC50: 0.38 nM for the first, 0.44 nM for the second.

Going from `CN(C)C/C=C/C(=O)N1CCc2[nH]c3c(C(N)=O)c(-c4ccc(Oc5ccccc5)cc4)nn3c2CC1` [Compound 122] to `NC(=O)c1c(-c2ccc(Oc3ccccc3)cc2)nn2c3c([nH]c12)CCN(C(=O)CCCl)C3` [Compound 53, 7-(3-Chloropropanoyl)-2-(4-phenoxyphenyl)-5,6,7,8-tetrahydro-4H-pyrazolo[5′,1′:2,3]imidazo[4,5-c]pyridine-3-carboxamide], the IC50 rises from 0.78 nM to 7.7 nM (9.9-fold).

Going from `NC(=O)c1c(-c2ccc(Oc3ccccc3)cc2)nn2c1[nH]c1cnccc12` [Compound 61, 2-(4-Phenoxyphenyl)-4H-pyrazolo[1′,5′:1,2]imidazo[4,5-c]pyridine-3-carboxamide] to `NC(=O)c1c(-c2ccc(Oc3ccccc3)cc2)nn2c3c([nH]c12)CCNC3` [Compound 51, 2-(4-Phenoxyphenyl)-5,6,7,8-tetrahydro-4H-pyrazolo[5′,1′:2,3]imidazo[4,5-c]pyridine-3-carboxamide trifluoroacetate], the IC50 rises from 140 nM to 310 nM (2.2-fold).

`NC(=O)c1c(-c2ccc(Oc3ccccc3)cc2)nn2c1NC(=O)Cc1cc([N+](=O)[O-])ccc1-2` [Compound 73, 8-Nitro-5-oxo-2-(4-phenoxyphenyl)-5,6-dihydro-4H-benzo[f]pyrazolo[1,5-a][1,3]diazepine-3-carboxamide] and `NC(=O)c1c(-c2ccc(Oc3ccccc3)cc2)nn2c1NCC(c1ccccc1N)C2` (centres unmarked) [Compound 89, 6-(2-Aminophenyl)-2-(4-phenoxyphenyl)-4,5,6,7-tetrahydropyrazolo[1,5-a]pyrimidine-3-carboxamide] cannot be ordered by IC50: > 10000 nM for the first, > 10000 nM for the second.

Compared with `NC(=O)c1c(-c2ccc(OC3CCCC3)cc2)nn2c1NCCC2c1ccccc1N` (centres unmarked) [Compound 17, 7-(2-Aminophenyl)-2-(4-(cyclopentyloxy)phenyl)-4,5,6,7-tetrahydro pyrazolo[1,5-a]pyrimidine-3-carboxamide], `C=CC(=O)Nc1cc(Cl)ccc1C1CCNc2c(C(N)=O)c(-c3ccc(OCC4CC4)cc3)nn21` (centres unmarked) [Compound 147, 7-(2-Acrylamido-4-chlorophenyl)-2-(4-(cyclopropylmethoxy)phenyl)-4,5,6,7-tetrahydropyrazolo[1,5-a]pyrimidine-3-carboxamide] is lower in IC50: > 10000 nM for the first, 2.7 nM for the second.

First: C=CC(=O)N1CC(C2CCNc3c(C(N)=O)c(-c4ccc(Cl)cc4)nn32)C1 (centres unmarked) [Compound 145, 7-(1-acryloylazetidin-3-yl)-2-(4-chlorophenyl)-4,5,6,7-tetrahydropyrazolo[1,5-a]pyrimidine-3-carboxamide]
Second: C=CC(=O)N1CC(C2CCNc3c(C(N)=O)c(-c4ccc(OCCc5ccccc5)cc4)nn32)C1 (centres unmarked) [Compound 141, 7-(1-acryloylazetidin-3-yl)-2-(4-phenethoxyphenyl)-4,5,6,7-tetrahydropyrazolo[1,5-a]pyrimidine-3-carboxamide]
The IC50 of the first is 10-fold higher: 72 nM for the first, 7 nM for the second. The second is the more potent here.

First: C=CC(=O)NCC1CCNc2c(C(N)=O)c(-c3ccc(OCc4ccccc4)cc3)nn21 (centres unmarked) [Compound 111, 7-(acrylamidomethyl)-2-(4-(benzyloxy)phenyl)-4,5,6,7-tetrahydropyrazolo[1,5-a]pyrimidine-3-carboxamide]
Second: C=CC(=O)NCC1CCNc2c(C(N)=O)c(-c3ccc(OCC4CC4)cc3)nn21 (centres unmarked) [Compound 113, 7-(acrylamidomethyl)-2-(4-(cyclopropylmethoxy)phenyl)-4,5,6,7-tetrahydropyrazolo[1,5-a]pyrimidine-3-carboxamide]
The IC50 of the first is 3.9-fold lower: 24 nM for the first, 94 nM for the second.

Compared with `C=CC(=O)Nc1cc(C)ccc1C1CCNc2c(C(N)=O)c(-c3ccc(OCC4CC4)cc3)nn21` (centres unmarked) [Compound 148, 7-(2-Acrylamido-4-methylphenyl)-2-(4-(cyclopropylmethoxy)phenyl)-4,5,6,7-tetrahydropyrazolo[1,5-a]pyrimidine-3-carboxamide], `C=CC(=O)Nc1ccccc1C1CCNc2c(C(N)=O)c(-c3ccc(OCc4ccccn4)c(Cl)c3)nn21` (centres unmarked) [Compound 146, 7-(2-Acrylamidophenyl)-2-(3-chloro-4-(pyridin-2-ylmethoxy)phenyl)-4,5,6,7-tetrahydropyrazolo[1,5-a]pyrimidine-3-carboxamide] is 4.3-fold lower in IC50: 5.6 nM for the first, 1.3 nM for the second.

First: NC(=O)c1c(-c2ccc(Oc3ccccc3)cc2)nn2c1NCCC21CCN(Cc2ccccc2)CC1 [Compound 41, 1-Benzyl-2′-(4-phenoxyphenyl)-5′,6′-dihydro-4′H-spiro[piperidine-4,7′-pyrazolo[1,5-a]pyrimidine]-3′-carboxamide]
Second: NC(=O)c1c(-c2ccc(Oc3ccccc3)cc2)nn2c1NCC21CCN(Cc2ccccc2)CC1 [Compound 38, 1′-Benzyl-6-(4-phenoxyphenyl)-1,2-dihydrospiro[imidazo[1,2-b]pyrazole-3,4′-piperidine]-7-carboxamide]
The IC50 of the first is 2.7-fold lower: 180 nM for the first, 490 nM for the second.

Compared with `CC#CC(=O)N1CC(C2CCNc3c(C(N)=O)c(-c4ccc(Oc5ccc(F)cc5F)cc4)nn32)C1` (centres unmarked) [Compound 189, 7-(1-(But-2-ynoyl)azetidin-3-yl)-2-(4-(2,4-difluorophenoxy)phenyl)-4,5,6,7-tetrahydropyrazolo[1,5-a]pyrimidine-3-carboxamide], `CCC#CC(=O)N1CCC([C@@H]2CCNc3c(C(N)=O)c(-c4ccc(Oc5ccccc5)cc4)nn32)CC1` [Compound 186, (S)-7-(1-(Pent-2-ynoyl)piperidin-4-yl)-2-(4-phenoxyphenyl)-4,5,6,7-tetrahydropyrazolo[1,5-a]pyrimidine-3-carboxamide] is 38-fold lower in IC50: 42 nM for the first, 1.1 nM for the second. The second is the more potent here.

Going from `NC(=O)c1c(-c2ccc(Oc3ccccc3)cc2)nn2c1NCC(N)C2` (centres unmarked) [Compound 84, 6-Amino-2-(4-phenoxyphenyl)-4,5,6,7-tetrahydropyrazolo[1,5-a]pyrimidine-3-carboxamide] to `NC(=O)c1c(-c2ccc(Oc3ccccc3)cc2)nn2c1NCCC21CNC1` [Compound 118, 2′-(4-phenoxyphenyl)-5′,6′-dihydro-4′H-spiro[azetidine-3,7′-pyrazolo[1,5-a]pyrimidine]-3′-carboxamide], the IC50 falls from 2900 nM to 410 nM (7.1-fold).

Going from `COCC#CC(=O)N1CCC([C@@H]2CCNc3c(C(N)=O)c(-c4ccc(Oc5ccccc5)cc4)nn32)CC1` [Compound 192, (S)-7-(1-(4-Methoxybut-2-ynoyl)piperidin-4-yl)-2-(4-phenoxyphenyl)-4,5,6,7-tetrahydropyrazolo[1,5-a]pyrimidine-3-carboxamide] to `C=CC(=O)N1CCC2[C@H](CNc3c(C(N)=O)c(-c4ccc(Oc5ccccc5)cc4)nn32)C1` (single isomer, unassigned) [Compound 30b], the IC50 rises from 0.91 nM to 16 nM (18-fold). The first is the more potent here.

Compared with `CN(C)CCOc1cccc(C2CNc3c(C(N)=O)c(-c4ccc(Oc5ccccc5)cc4)nn3C2)c1` (centres unmarked) [Compound 91, 6-(3-(2-(Dimethylamino)ethoxy)phenyl)-2-(4-phenoxyphenyl)-4,5,6,7-tetrahydropyrazolo[1,5-a]pyrimidine-3-carboxamide], `CN(C)C/C=C/C(=O)Nc1ccccc1C1CCNc2c(C(N)=O)c(-c3ccc(Oc4ccccc4)cc3)nn21` (centres unmarked) [Compound 92, (E)-7-(2-(4-(dimethylamino)but-2-enamido)phenyl)-2-(4-phenoxyphenyl)-4,5,6,7-tetrahydropyrazolo[1,5-a]pyrimidine-3-carboxamide] is 1700-fold lower in IC50: 1900 nM for the first, 1.1 nM for the second. The second is the more potent here.

First: C=CC(=O)N1CC2(CNc3c(C(N)=O)c(-c4ccc(Oc5ccccc5)cc4)nn3C2)C1 [Compound 88, 1-Acryloyl-2′-(4-phenoxyphenyl)-5′,7′-dihydro-4′H-spiro[azetidine-3,6′-pyrazolo[1,5-a]pyrimidine]-3′-carboxamide]
Second: CC#CC(=O)NCC1CCNc2c(C(N)=O)c(-c3ccc(Oc4ccccc4)cc3)nn21 (centres unmarked) [Compound 185, 7-(But-2-ynamidomethyl)-2-(4-phenoxyphenyl)-4,5,6,7-tetrahydropyrazolo[1,5-a]pyrimidine-3-carboxamide]
The IC50 of the first is 3.7-fold higher: 16 nM for the first, 4.3 nM for the second. The second is the more potent here.

In the case of `COc1cc(-c2nn3c(c2C(N)=O)NCCC3c2ccccc2NC(=O)/C=C/CN(C)C)ccc1C` (centres unmarked) [Compound 165, (E)-7-(2-(4-(Dimethylamino)but-2-enamido)phenyl)-2-(3-methoxy-4-methylphenyl)-4,5,6,7-tetrahydropyrazolo[1,5-a]pyrimidine-3-carboxamide], the IC50 is reported as 1.6 nM.
